Measured values: patent publication US10604514B2, “6-(5-membered heteroaryl)isoquinolin-3-yl carboxamides and preparation and use thereof” (Samumed, LLC, priority 2017, dated 2020)
Like-named read-outs stand apart in the source and are kept apart here.

Legend:
[1] = system: Wnt activity (Sp5-Luc reporter in SW480 colon carcinoma cells); assay: Wnt activity screening assay (Sp5-Luc reporter gene assay); format: cell-based, human
Summary of the method: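 SW480 cells stably carrying an Sp5 promoter (eight TCF/LEF sites)-firefly luciferase reporter were plated in DMEM with 1% FBS and treated with a 10-point, 1:3 dilution series from 10 μM (0.1% DMSO) for 36 to 48 h at 37° C. Luminescence was normalized to DMSO controls, and EC50 came from four-parameter nonlinear regression.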

GSK3β kinase = GSK3β kinase (Homo sapiens (Human), UniProt P49841); assay: GSK3β kinase assay (Ser/Thr 09 peptide Z-lyte, FRET); format: biochemical; settings: method text calls the value IC50;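 further: Coumarin/fluorescein emission ratio converted to percent phosphorylation against unphosphorylated (0%) and phosphorylated (100%) controls, 1 h compound incubation at room temperature, 11-point threefold dilutions from 10 µM, run in duplicate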
GSK3β kinase, sequence (P49841 whole entry): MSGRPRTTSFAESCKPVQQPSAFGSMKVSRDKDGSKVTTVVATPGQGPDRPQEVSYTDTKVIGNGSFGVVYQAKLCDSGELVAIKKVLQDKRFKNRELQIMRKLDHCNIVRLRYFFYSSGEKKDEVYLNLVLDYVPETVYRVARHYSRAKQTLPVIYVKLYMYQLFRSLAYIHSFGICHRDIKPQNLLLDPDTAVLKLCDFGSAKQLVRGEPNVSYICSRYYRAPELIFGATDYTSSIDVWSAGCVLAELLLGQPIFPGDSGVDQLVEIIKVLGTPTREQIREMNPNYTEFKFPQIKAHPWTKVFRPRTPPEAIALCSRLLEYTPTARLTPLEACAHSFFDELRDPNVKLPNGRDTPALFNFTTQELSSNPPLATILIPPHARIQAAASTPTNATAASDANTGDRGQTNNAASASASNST

[2] = system: Tau phosphorylation at Ser396 (pSer396), SH-SY5Y cells; assay: Tau phosphorylation at Ser396 (pSer396) in SH-SY5Y cells, ELISA/western blot; format: cell-based, human; settings: Homo sapiens;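 further: cell lysates probed for reduced Tau pSer396 via ELISA (colorimetric) or western blot (chemiluminescence), both with one shared pSer396 antibody, EC50 for lowering phosphorylation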
Experimental: Two days before treatment, cells were seeded onto 96 well plates at 5×10^4 cells/well.
Wells were visually checked for cell death or change in morphology and supernatants were tested for cytotoxicity by measurement of lactate dehydrogenase release (LDH, CytoToxOne kit, Promega) if necessary.
Cells were lysed with RIPA buffer complemented with phosphatase and protease inhibitors then lysates were spun down at 12,000 g for 10 min to remove any cellular debris. Lysates are then either directly tested for pSer396 by ELISA (Life Technology, Kit KHB7031) or loaded on NuPage Bis-Tris gels for western blot analysis. Colorimetric detection of ELISA signal is performed by Cytation3 plate reader (Biotek) and the chemiluminescence signal for HRP-linked antibodies used in western blotting is detected using a Carestream Image Station. The same pSer396 antibody is used for detection of pTau in both assays.

[3] = system: SW480 colon carcinoma cells; assay: Cell viability assay (CellTiter-Glo) in SW480 cells; format: cell-based, human;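 further: SW480 cells stably carrying an Sp5-luciferase TCF/LEF reporter, luminescent ATP signal as viability measure, DMSO-treated cells as control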
[4] = system: LL29 cells (primary human fibroblasts derived from IPF patients), α-smooth muscle actin; assay: Inhibition of fibrotic process: αSMA in TGF-β1-treated primary human fibroblasts from IPF patients (LL29 cells); format: cell-based; settings: Homo sapiens, Fibroblast; for EC50: 96 h, % αSMA-positive LL29 cells, TGF-β1 20 ng/mL, 4 days; for inhibition at 10 µM: read-out: percent inhibition at 10 μM
Summary of the method: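 IPF-patient lung fibroblasts (LL29) were stimulated with TGF-β1 (20 ng/mL) in 1% FBS medium with compound (11-point 1:2 series, 0.1% DMSO) for 4 days at 37 °C. Fixed cells were immunostained for αSMA and imaged, excluding SYTOX-positive dead cells. The % αSMA-positive cells was normalized to TGF-β1/DMSO control wells.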

IL-6 = IL-6 inhibition in LPS-stimulated human peripheral blood mononuclear cells (HTRF); format: cell-based; settings: Homo sapiens, PBMC; for inhibition at 10 µM: read-out: percent value in parentheses below EC50 >10; for EC50: IL-6, LPS-stimulated huPBMCs, HTRF
Summary of the method: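 Fresh human PBMCs (5000 cells/well, 1% FBS RPMI) preincubated with compound (10-point 1:3 series from 10 μM, 0.25% DMSO) 2 h at 37 °C, then stimulated with 50 ng/mL E. coli LPS for 22 h. IL-6 by HTRF 665/620 ratio; DMSO-normalized, EC50 from 4-parameter fit.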

DYRK1A kinase = DYRK1A kinase (Homo sapiens (Human), UniProt Q13627); assay: DYRK1A kinase assay (Ser/Thr 18 peptide Z-lyte, FRET)
[5] = Homo sapiens; Sp5-Luc reporter, SW480 cells, 36 to 48 hours
[6] = SH-SY5Y cells, overnight (16-18 h), read-out: pSer396 Tau EC50
[7] = Homo sapiens, 96 h; cell viability, SW480 cells, four days, CellTiter-Glo
[8] = DYRK1A kinase, method text calls the value IC50
[9] = Homo sapiens, SW480; read-out: percent inhibition at 10 μM
[10] = SH-SY5Y, read-out: pSer396 Tau EC50 (μM)
[11] = Homo sapiens, SW480, read-out: percent inhibition at 10 μM

SMILES | EC50 [1, 5] | EC50 (GSK3β kinase) | EC50 [2, 6] | EC50 [3, 7] | EC50 (IL-6) | EC50 (DYRK1A kinase) | EC50 (DYRK1A kinase; [8]) | EC50 [4] | inhibition at 10 µM (IL-6) | inhibition at 10 µM [1, 9] | inhibition at 10 µM [3, 9] | inhibition at 10 µM [4] | EC50 [2, 10] | inhibition at 10 µM [3, 11] | inhibition at 10 µM [1, 11]
[2H]c1c([2H])c(C(=O)Nc2cc3cc(-c4cnc(C)n4C)ccc3cn2)c([2H])c([2H])c1C [Compound 162, N-(6-(1,2-Dimethyl-1H-imidazol-5-yl)isoquinolin-3-yl)-4-methylbenzamide-2,3,5,6-d4] | 588 nM | 5060 nM | > 10 µM | 653 nM | > 10000 nM | 11 nM | – | 2000 nM | 44.7% | – | – | – | – | – | –
[2H]c1c([2H])c(C([2H])([2H])[2H])c([2H])c([2H])c1C(=O)Nc1cc2cc(-c3cnc(C)n3C)ccc2cn1 [Compound 163, N-(6-(1,2-Dimethyl-1H-imidazol-5-yl)isoquinolin-3-yl)-4-(methyl-d3) benzamide-2,3,5,6-d4] | 604 nM | 4270 nM | > 10 µM | 795 nM | 5720 nM | 5 nM | – | 876 nM | – | – | – | – | – | – | –
[2H]C([2H])([2H])Oc1ccc(C(=O)Nc2cc3cc(-c4cnc(C)n4C)ccc3cn2)cc1 [Compound 164, N-(6-(1,2-Dimethyl-1H-imidazol-5-yl)isoquinolin-3-yl)-4-(methoxy-d3) benzamide] | 638 nM | 4580 nM | > 10 µM | 782 nM | 3390 nM | 11 nM | – | 1480 nM | – | – | – | – | – | – | –
[2H]c1c([2H])c(C(=O)Nc2cc3cc(-c4cnc(C)n4C)ccc3cn2)c([2H])c([2H])c1OC([2H])([2H])[2H] [Compound 165, N-(6-(1,2-Dimethyl-1H-imidazol-5-yl)isoquinolin-3-yl)-4-(methoxy-d3) benzamide-2,3,5,6-d4] | 498 nM | 3740 nM | > 10 µM | 752 nM | 2850 nM | 6 nM | – | 998 nM | – | – | – | – | – | – | –
[2H]c1c([2H])c(C(=O)Nc2cc3cc(-c4cnc(C)n4C)ccc3cn2)c([2H])c([2H])c1OC [Compound 166, N-(6-(1,2-Dimethyl-1H-imidazol-5-yl)isoquinolin-3-yl)-4-methoxybenzamide-2,3,5,6-d4] | 525 nM | 6380 nM | > 10 µM | 671 nM | 3550 nM | 9 nM | – | 1880 nM | – | – | – | – | – | – | –
Cn1cc(-c2ccc3cnc(NC(=O)C4CCN(C(C)(C)C)CC4)cc3c2)cn1 [Compound 167, 1-(tert-Butyl)-N-(6-(1-methyl-1H-pyrazol-4-yl)isoquinolin-3-yl)piperidine-4-carboxamide] | 2350 nM | 96 nM | 0.288 µM | 3340 nM | 1240 nM | – | 7 nM | 293 nM | – | – | – | – | – | – | –
Cc1nnc(-c2ccc3cnc(NC(=O)N4CCC(NCC(F)F)CC4)cc3c2)s1 [Compound 168, 4-((2,2-Difluoroethyl)amino)-N-(6-(5-methyl-1,3,4-thiadiazol-2-yl)isoquinolin-3-yl)piperidine-1-carboxamide] | > 10000 nM | 20 nM | 0.578 µM | > 10000 nM | > 10000 nM | – | 4 nM | 1300 nM | 14.2% | 42.2% | 19.4% | – | – | – | –
Cc1nnc(-c2ccc3cnc(NC(=O)N4[C@@H]5CC[C@H]4C[C@@H](NCC(F)F)C5)cc3c2)s1 [Compound 188, (1R,5S)-cis-3-((2,2-difluoroethyl)amino)-N-(6-(5-methyl-1,3,4-thiadiazol-2-yl)isoquinolin-3-yl)-8-azabicyclo [3.2.1]octane-8-carboxamide] | 8210 nM | 154 nM | – | > 10000 nM | 5770 nM | – | 3 nM | 2480 nM | – | – | – | – | 4.8 µM | 28% | –
Cc1nnc(-c2ccc3cnc(NC(=O)N4[C@@H]5CC[C@H]4C[C@@H](N)C5)cc3c2)s1 [Compound 193, (1R,5S)-3-endo-Amino-N-(6-(5-methyl-1,3,4-thiadiazol-2-yl)isoquinolin-3-yl)-8-azabicyclo[3.2.1]octane-8-carboxamide] | > 10000 nM | 330 nM | – | > 10000 nM | > 10000 nM | – | 33 nM | > 10000 nM | 6.5% | – | – | 6.5% | > 10 µM | 12.8% | 8.4%
Cn1cc(-c2ccc3cnc(NC(=O)[C@H]4CC[C@H](NCCF)CC4)cc3c2)cn1 [Compound 197, trans-4-((2-Fluoroethyl)amino)-N-(6-(1-methyl-1H-pyrazol-4-yl)isoquinolin-3-yl)cyclohexane-1-carboxamide] | 1420 nM | 87 nM | 0.57 µM | 1270 nM | 994 nM | – | 3 nM | 233 nM | – | – | – | – | – | – | –
Cc1nnc(-c2ccc3cnc(NC(=O)[C@H]4CC[C@H](NCCF)CC4)cc3c2)s1 [Compound 200, trans-4-((2-Fluoroethyl)amino)-N-(6-(5-methyl-1,3,4-thiadiazol-2-yl)isoquinolin-3-yl)cyclohexane-1-carboxamide] | 841 nM | 14 nM | 0.095 µM | 1390 nM | 3980 nM | – | 6 nM | 533 nM | – | – | – | – | – | – | –

Second part, led by results:

EC50 [1, 5] | EC50 (GSK3β kinase) | EC50 [2, 6] | EC50 [3, 7] | EC50 (IL-6) | EC50 (DYRK1A kinase) | EC50 (DYRK1A kinase; [8]) | SMILES | EC50 [4] | inhibition at 10 µM (IL-6) | inhibition at 10 µM [1, 9] | inhibition at 10 µM [3, 9] | inhibition at 10 µM [4] | EC50 [2, 10] | inhibition at 10 µM [3, 11] | inhibition at 10 µM [1, 11]
2540 nM | 47 nM | 0.154 µM | 1130 nM | 1020 nM | – | 3 nM | CCCCN1CCC(C(=O)Nc2cc3cc(-c4cnn(C)c4)ccc3cn2)CC1 [Compound 169, 1-Butyl-N-(6-(1-methyl-1H-pyrazol-4-yl)isoquinolin-3-yl)piperidine-4-carboxamide] | 148 nM | – | – | – | – | – | – | –
> 10000 nM | 52 nM | 9.91 µM | > 10000 nM | > 10000 nM | 15 nM | – | CC(C)C[N+]1(CC(C)C)CCC(C(=O)Nc2cc3cc(-c4cnn(C)c4)ccc3cn2)CC1 [Compound 170, 1,1-Diisobutyl-4-((6-(1-methyl-1H-pyrazol-4-yl)isoquinolin-3-yl)carbamoyl)piperidin-1-ium] | 7090 nM | 4.4% | 23.1% | 27% | – | – | – | –
1040 nM | 207 nM | 4 µM | > 10000 nM | > 10000 nM | – | 23 nM | Cc1nnc(-c2ccc3cnc(NC(=O)N4C[C@H]5C[C@@H]4CN5C)cc3c2)s1 [Compound 176, (1R,4R)-5-Methyl-N-(6-(5-methyl-1,3,4-thiadiazol-2-yl)isoquinolin-3-yl)-2,5-diazabicyclo[2.2.1]heptane-2-carboxamide] | > 10000 nM | 8.4% | – | 8.3% | 8.4% | – | – | –
2780 nM | 26 nM | 1.3 µM | 5060 nM | > 10000 nM | – | 18 nM | CN[C@H]1CCN(C(=O)Nc2cc3cc(-c4nnc(C)s4)ccc3cn2)C[C@@H]1F [Compound 179, (3S,4S)-3-Fluoro-N-(6-(5-methyl-1,3,4-thiadiazol-2-yl)isoquinolin-3-yl)-4-(methylamino)piperidine-1-carboxamide] | > 10000 nM | 10.1% | – | – | 10.1% | – | – | –
681 nM | 12 nM | 0.218 µM | 1260 nM | 3090 nM | – | 3 nM | Cc1nnc(-c2ccc3cnc(NC(=O)[C@H]4CC[C@H](N5CCN(C)CC5)CC4)cc3c2)s1 [Compound 194, trans-N-(6-(5-methyl-1,3,4-thiadiazol-2-yl)isoquinolin-3-yl)-4-(4-methylpiperazin-1-yl)cyclohexane-1-carboxamide] | 328 nM | – | – | – | – | – | – | –
982 nM | 17 nM | 0.234 µM | 1640 nM | 3860 nM | – | 4 nM | COCCN[C@H]1CC[C@H](C(=O)Nc2cc3cc(-c4nnc(C)s4)ccc3cn2)CC1 [Compound 199, trans-4-((2-Methoxyethyl)amino)-N-(6-(5-methyl-1,3,4-thiadiazol-2-yl)isoquinolin-3-yl)cyclohexane-1-carboxamide] | 3200 nM | – | – | – | – | – | – | –
